The results in this text go back to patent US20090170830A1, “Tricyclic Beta-Secretase Inhibitors for the Treatment of Alzheimer's Disease” (priority 2005, published 2009).

The experiment addresses T1, beta-secretase enzyme (BACE 1), soluble human protein (Homo sapiens, UniProt P56817).
T1 construct: soluble (transmembrane domain and cytoplasmic extension excluded) human protein; made in house
Briefly: ECL assay: homogeneous end point electrochemiluminescence assay with biotinylated BACE substrate. It is filed as biochemical. The conditions noted are these: pH 4.5, rt, 30 min, 10% DMSO, range bounds printed in mixed units (lower nM, upper μM). The procedure:
Enzyme inhibition may be determined as follows.
ECL Assay: A homogeneous end point electrochemiluminescence (ECL) assay is employed using a biotinylated BACE substrate. The Km of the substrate is greater than 100 μM and can not be determined due to the limit of solubility of the substrate. A typical reaction contains approximately 0.1 nM enzyme, 0.25 μM of the substrate, and buffer (50 mM NaOAc, pH 4.5, 0.1 mg/ml BSA, 0.2% CHAPS, 15 mM EDTA and 1 mM deferoxamine) in a total reaction volume of 100 μl. The reaction proceeds for 30 min and is then stopped by the addition of 25 μL of 1 M Tris-HCl, pH 8.0. The resulting enzymatic product is assayed by adding a ruthenylated antibody which specifically recognizes the C-terminal residue of the product. Streptavidin coated magnetic beads are added into the solution and the samples are subjected to M-384 (Igen Inc., Gaithersburg, Md.) analysis. Under these conditions, less than 10% of substrate is processed by BACE 1. The enzyme used in these studies is soluble (transmembrane domain and cytoplasmic extension excluded) human protein produced in a baculovirus expression system. To measure the inhibitory potency for compounds, 12 concentrations of inhibitors are prepared starting from 100 μM with three fold series dilution. Solutions of the inhibitor in DMSO are included in the reaction mixture (final DMSO concentration is 10%). […]

T1 sequence (P56817 46-457 limits assumed): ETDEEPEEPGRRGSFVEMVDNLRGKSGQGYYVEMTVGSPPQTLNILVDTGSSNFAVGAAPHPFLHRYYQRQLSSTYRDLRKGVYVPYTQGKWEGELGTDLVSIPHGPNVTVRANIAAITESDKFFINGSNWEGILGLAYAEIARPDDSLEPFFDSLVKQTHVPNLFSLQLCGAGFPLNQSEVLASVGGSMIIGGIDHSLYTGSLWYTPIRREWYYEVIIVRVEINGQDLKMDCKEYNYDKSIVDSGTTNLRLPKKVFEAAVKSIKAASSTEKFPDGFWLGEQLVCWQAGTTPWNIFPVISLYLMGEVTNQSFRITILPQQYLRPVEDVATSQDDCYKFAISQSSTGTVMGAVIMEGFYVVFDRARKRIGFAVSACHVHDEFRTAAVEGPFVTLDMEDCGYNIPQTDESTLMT

Take `CCc1cn2c3c(cc(-c4nnc([C@](C)(N)Cc5ccccc5)o4)cc13)N(C)S(=O)(=O)CC2` [Example 1, (2R)-2-[5-(7-ethyl-1-methyl-2,2-dioxido-3,4-dihydro-1H-[1,2,5]thiadiazepino[3,4,5-hi]indol-9-yl)-1,3,4-oxadiazol-2-yl]-1-phenylpropan-2-amine]: the “IC50 in inhibiting the beta-secretase enzyme” value is 1 nM and 100000 nM.
